Measurements as given in US8791132B2, “Compounds and methods for treatment of hypertension” (Medivation Technologies, Inc., priority 2011, dated 2014).
Where “and” joins values, the source holds several entries; their conditions need not be identical. Equal values may be shown once.

How the values were obtained:
[1] = target: T1, human recombinant adrenergic α2A receptor (Homo sapiens, UniProt P08913); test: Radioligand binding, adrenergic α2A ([3H]MK-912); settings: compound at 0.1 μM; [3H]MK-912; repeat datapoints each shown; 0.1 µM
T1 construct: expressed in transfected cells; host or cells: insect Sf9 cells
T1 sequence (P08913 1-465): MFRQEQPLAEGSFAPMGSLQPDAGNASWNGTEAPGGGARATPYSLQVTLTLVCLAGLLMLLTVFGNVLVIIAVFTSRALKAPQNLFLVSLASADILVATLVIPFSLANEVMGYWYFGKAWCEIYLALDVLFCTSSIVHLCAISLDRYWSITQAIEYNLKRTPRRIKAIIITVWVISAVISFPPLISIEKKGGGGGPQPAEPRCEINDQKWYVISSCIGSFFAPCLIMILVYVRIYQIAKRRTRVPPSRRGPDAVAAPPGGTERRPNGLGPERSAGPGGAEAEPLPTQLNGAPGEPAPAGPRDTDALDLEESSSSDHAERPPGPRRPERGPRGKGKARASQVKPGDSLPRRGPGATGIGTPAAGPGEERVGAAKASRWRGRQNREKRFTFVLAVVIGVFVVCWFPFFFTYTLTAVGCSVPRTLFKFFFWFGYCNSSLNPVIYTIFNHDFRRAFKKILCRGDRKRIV
In short: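 Receptor expressed in insect Sf9 cells, assayed in 50 mM Tris-HCl pH 7.4 with 12.5 mM MgCl2 and 2 mM EDTA. Compounds incubated with 1 nM [3H]MK-912 for 60 min at 25 °C; nonspecific binding defined with 10 μM WB-4101. Filter-bound radioactivity counted; values are percent inhibition of specific binding.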

[2] = target: T2, human recombinant adrenergic α2B receptor (Homo sapiens, UniProt P18089); test: Radioligand binding, adrenergic α2B ([3H]Rauwolscine); settings: for Percentage inhibition of ligand binding, Adrenergic α2B (0.03 μM): compound at 0.03 μM; for Percentage inhibition of ligand binding, Adrenergic α2B (0.03 μM) / inhibition at 0.03 µM: [3H]Rauwolscine, repeat datapoints each shown; for inhibition at 0.03 µM: read-out: Percentage inhibition of ligand binding, Adrenergic α2B (0.03 μM), compound at 0.03 μM
T2 construct: expressed in transfected cells; host or cells: CHO-K1
T2 sequence (P18089 1-450): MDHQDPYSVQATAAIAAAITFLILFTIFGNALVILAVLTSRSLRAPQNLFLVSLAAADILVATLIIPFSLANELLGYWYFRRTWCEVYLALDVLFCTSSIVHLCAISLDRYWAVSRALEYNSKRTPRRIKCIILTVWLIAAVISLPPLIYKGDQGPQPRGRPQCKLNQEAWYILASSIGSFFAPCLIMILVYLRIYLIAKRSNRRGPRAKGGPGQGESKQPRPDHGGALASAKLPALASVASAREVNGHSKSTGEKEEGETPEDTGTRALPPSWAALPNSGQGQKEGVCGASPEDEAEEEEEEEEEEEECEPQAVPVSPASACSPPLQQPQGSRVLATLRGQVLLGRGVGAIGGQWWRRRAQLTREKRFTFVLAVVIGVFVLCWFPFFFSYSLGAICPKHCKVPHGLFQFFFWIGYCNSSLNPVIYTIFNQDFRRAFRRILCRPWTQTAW
In short: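 Receptor expressed in CHO-K1 cells, assayed in 50 mM Tris-HCl pH 7.4 with 12.5 mM MgCl2, 1 mM EDTA and 0.2% BSA. Compounds were incubated with 2.5 nM [3H]Rauwolscine for 60 min at 25° C; 10 μM Prazosin defined non-specific binding. Filter counting gave percent inhibition of specific binding.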

[3] = target: T3, rat adrenergic α1B receptor (Rattus norvegicus, UniProt P15823); test: Radioligand binding, adrenergic α1B ([3H]Prazosin); settings: [3H]Prazosin, repeat datapoints each shown; for Percentage inhibition of ligand binding, Adrenergic α1B (0.1 μM): compound at 0.1 μM
T3 construct: rat adrenergic α1B receptor obtained from Wistar Rat liver; from tissue; host or cells: Wistar rat liver
T3 sequence (P15823 1-515): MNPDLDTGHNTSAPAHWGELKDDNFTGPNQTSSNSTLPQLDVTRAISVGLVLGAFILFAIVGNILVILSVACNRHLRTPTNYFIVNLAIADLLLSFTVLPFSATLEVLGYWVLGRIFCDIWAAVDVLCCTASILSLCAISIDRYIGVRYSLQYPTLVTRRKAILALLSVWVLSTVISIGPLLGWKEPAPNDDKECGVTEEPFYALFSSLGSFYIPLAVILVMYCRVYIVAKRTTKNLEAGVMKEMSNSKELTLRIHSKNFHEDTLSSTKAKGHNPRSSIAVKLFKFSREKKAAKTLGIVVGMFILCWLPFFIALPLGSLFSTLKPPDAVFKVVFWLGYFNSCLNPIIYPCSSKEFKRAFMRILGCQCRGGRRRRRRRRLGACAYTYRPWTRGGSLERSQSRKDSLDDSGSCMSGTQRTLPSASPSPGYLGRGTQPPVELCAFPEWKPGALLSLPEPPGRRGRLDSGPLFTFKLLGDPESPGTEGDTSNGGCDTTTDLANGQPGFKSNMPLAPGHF
In short: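 Filter binding with Wistar rat liver α1B preparation: test compound plus 0.25 nM [3H]prazosin, 1 h at 25° C in modified Tris-HCl buffer pH 7.4.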

SMILES | Percentage inhibition of ligand binding, Adrenergic α2A (0.1 μM) [1] | Percentage inhibition of ligand binding, Adrenergic α2B (0.03 μM) [2] | Percentage inhibition of ligand binding, Adrenergic α1B (0.1 μM) [3] | inhibition at 0.03 µM [2] | Ki ([2]; read-out: Ki α2B) | inhibition at 0.03 µM ([3]; read-out: Percentage inhibition of ligand binding, Adrenergic α1B (0.03 μM), compound at 0.03 μM)
Cc1ccc2c(c1)c1c(n2CC(C)(O)c2cccnc2)CCN(C)C1C (single isomer, unassigned) [II-152b] | 6% | 61% | 2% |  |  | 
Cc1ccc2c(c1)c1c(n2CC(C)(O)c2cccnc2)CCN(C)C1C (single isomer, unassigned) [II-152c] | 1% | 14% | 6% |  |  | 
Cc1ccc2c(c1)c1c(n2CC(CC(O)C(C)(C)C)c2ccncc2)CCN(C)C1 (single isomer, unassigned) [II-227a, 6-(2,8-dimethyl-1,2,3,4-tetrahydro-pyrido[4,3-b]indol-5-yl)-2,2-dimethyl-5-pyridin-4-yl-hexan-3-ol] | 15% | 86% | 25% |  |  | 
Cc1ccc2c(c1)c1c(n2CC(CC(O)C(C)(C)C)c2ccncc2)CCN(C)C1 (single isomer, unassigned) [II-227b, 6-(2,8-dimethyl-1,2,3,4-tetrahydro-pyrido[4,3-b]indol-5-yl)-2,2-dimethyl-5-pyridin-4-yl-hexan-3-ol] | 6% | 18% | 8% |  |  | 
Cc1ccc2c(c1)c1c(n2CC(CC(O)C(C)(C)C)c2ccncc2)CCN(C)C1 (single isomer, unassigned) [II-227c, 6-(2,8-dimethyl-1,2,3,4-tetrahydro-pyrido[4,3-b]indol-5-yl)-2,2-dimethyl-5-pyridin-4-yl-hexan-3-ol] | 24% | 94% | 20% |  |  | 
Cc1ccc2c(c1)c1c(n2CC(CC(O)C(C)(C)C)c2ccncc2)CCN(C)C1 (single isomer, unassigned) [II-227d, 6-(2,8-dimethyl-1,2,3,4-tetrahydro-pyrido[4,3-b]indol-5-yl)-2,2-dimethyl-5-pyridin-4-yl-hexan-3-ol] | 6% | 26% | 12% |  |  | 
Cc1cnc2c(c1)c1c(n2CCc2ccncc2)CCN2CCCC12 (single isomer, unassigned) [II-244a, 9-methyl-6-(2-pyridin-4-yl-ethyl)-2,3,4,5,6,10c-hexahydro-1H-3a,6,7-triaza-cyclopenta[c]fluorene] | 22% | 102% | 95% |  |  | 
Cc1cnc2c(c1)c1c(n2CCc2ccncc2)CCN2CCCC12 (single isomer, unassigned) [II-244b, 9-methyl-6-(2-pyridin-4-yl-ethyl)-2,3,4,5,6,10c-hexahydro-1H-3a,6,7-triaza-cyclopenta[c]fluorene] | 2% | 16% | 12% |  |  | 
Cc1cnc2c(c1)c1c(n2CCc2ccc(C)nc2)CCN2CCCCC12 (single isomer, unassigned) [IV-8a] | 7% |  | 49% | 4% |  | 
Cc1cnc2c(c1)c1c(n2CCc2ccc(C)nc2)CCN2CCCCC12 (single isomer, unassigned) [IV-8b] | 22% | 3% | 5% |  |  | 
Cc1cnc2c(c1)c1c(n2CCc2cnc(C)nc2)CCN2CCCC12 (single isomer, unassigned) [IV-93a] | 18% |  | 7% | 52% |  | 
Cc1cnc2c(c1)c1c(n2CCc2cnc(C)nc2)CCN2CCCC12 (single isomer, unassigned) [IV-93b] | −1% | 44% | 65% |  |  | 
Cc1cnc2c(c1)c1c(n2CC(O)c2ccncc2)CCN2CCCC12 (single isomer, unassigned) [IV-209a, 2-(9-Methyl-1,2,3,4,5,10c-hexahydro-3a,6,7-triaza-cyclopenta[c]fluoren-6-yl)-1-pyridin-4-yl-ethanol] | 6% | 72% | 89% |  |  | 
Cc1cnc2c(c1)c1c(n2CC(O)c2ccncc2)CCN2CCCC12 (single isomer, unassigned) [IV-209b, 2-(9-Methyl-1,2,3,4,5,10c-hexahydro-3a,6,7-triaza-cyclopenta[c]fluoren-6-yl)-1-pyridin-4-yl-ethanol] | 10% | 13% | 11% |  |  | 
Cc1cnc2c(c1)c1c(n2CC(O)c2ccncc2)CCN2CCCC12 (single isomer, unassigned) [IV-209c, 2-(9-Methyl-1,2,3,4,5,10c-hexahydro-3a,6,7-triaza-cyclopenta[c]fluoren-6-yl)-1-pyridin-4-yl-ethanol] | 59% | 102% | 98% |  |  | 
Cc1cnc2c(c1)c1c(n2CC(O)c2ccncc2)CCN2CCCC12 (single isomer, unassigned) [IV-209d, 2-(9-Methyl-1,2,3,4,5,10c-hexahydro-3a,6,7-triaza-cyclopenta[c]fluoren-6-yl)-1-pyridin-4-yl-ethanol] | 8% | 79% | 54% |  |  | 
CC(O)(Cn1c2c(c3cc(Cl)cnc31)C1CCCN1CC2)c1cccnc1 (single isomer, unassigned) [IV-210a] | 37% | 101% and 103% | 70% and 75% |  | 0.33 nM | 43%
CC(O)(Cn1c2c(c3cc(Cl)cnc31)C1CCCN1CC2)c1cccnc1 (single isomer, unassigned) [IV-210b] | 8% | 29% | 10% |  |  | 
CC(O)(Cn1c2c(c3cc(Cl)cnc31)C1CCCN1CC2)c1cccnc1 (single isomer, unassigned) [IV-210c] | 1% | 10% | −4% |  |  | 
